Key:
Assay in all cases: D-[3H]-serine transport in HRPE cells transfected with transporter cDNA
Type in all cases: cell-based
Details in all cases: D-[3H]-serine 5 μM
ATA2 = molecular target: T1, ATA2 (Homo sapiens, UniProt Q96QD8)
T1 construct: expressed in transfected cells; host or cells: HRPE cells
T1 sequence (Q96QD8 1-506): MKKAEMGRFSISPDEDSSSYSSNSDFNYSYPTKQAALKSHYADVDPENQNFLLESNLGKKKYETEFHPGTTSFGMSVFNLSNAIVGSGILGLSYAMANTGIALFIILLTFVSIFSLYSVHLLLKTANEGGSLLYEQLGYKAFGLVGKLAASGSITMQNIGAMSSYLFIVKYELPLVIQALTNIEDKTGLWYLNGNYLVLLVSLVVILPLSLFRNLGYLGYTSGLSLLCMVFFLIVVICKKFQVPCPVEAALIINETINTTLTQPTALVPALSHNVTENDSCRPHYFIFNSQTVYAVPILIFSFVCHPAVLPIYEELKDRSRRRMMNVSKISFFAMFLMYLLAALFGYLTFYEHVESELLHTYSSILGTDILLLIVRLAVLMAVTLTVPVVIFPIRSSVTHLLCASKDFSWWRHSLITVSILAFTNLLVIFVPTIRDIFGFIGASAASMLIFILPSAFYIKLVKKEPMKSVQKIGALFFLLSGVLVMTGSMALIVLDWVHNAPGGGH
Protocol: (§1) Transport of D-[^3H]-serine (5 μM) was measured in HRPE cells transfected with cDNA of each transporter.
(§2) The present inventors evaluated the function of 10 different amino acid transporter clones with respect to transport of D-serine in heterologous expression systems (FIG. 11). All of these transporters are expressed in the intestinal tract. The list of the transporters tested include three energy-independent, heterodimeric facilitative transporters (L1, L2, and b^0,+), three subtypes of the Na^+-coupled system A (ATA1, ATA2, and ATA3), two subtypes of the Na^+- and H^+-coupled system N (SN1 and SN2), the Na^+-coupled system ATB^0, and the Na^+- and Cl^−-coupled system ATB^0,+. […] The ability to transport D-serine was the highest for the Na^+- and Cl^−-coupled transporter ATB^0,+. ATB^0,+ belongs to the gene family of neurotransmitter transporters whose transport function is energized by multiple driving forces, namely a Na^+ gradient, a Cl^− gradient, and membrane potential. […] Based on the energetics of these two transport systems, ATB^0,+ is expected to play the leading role in this process.

SN2 = molecular target: T2, SN2 (Homo sapiens, UniProt Q8WUX1)
T2 construct: expressed in transfected cells; host or cells: HRPE cells
T2 sequence (Q8WUX1 whole entry, species assumed): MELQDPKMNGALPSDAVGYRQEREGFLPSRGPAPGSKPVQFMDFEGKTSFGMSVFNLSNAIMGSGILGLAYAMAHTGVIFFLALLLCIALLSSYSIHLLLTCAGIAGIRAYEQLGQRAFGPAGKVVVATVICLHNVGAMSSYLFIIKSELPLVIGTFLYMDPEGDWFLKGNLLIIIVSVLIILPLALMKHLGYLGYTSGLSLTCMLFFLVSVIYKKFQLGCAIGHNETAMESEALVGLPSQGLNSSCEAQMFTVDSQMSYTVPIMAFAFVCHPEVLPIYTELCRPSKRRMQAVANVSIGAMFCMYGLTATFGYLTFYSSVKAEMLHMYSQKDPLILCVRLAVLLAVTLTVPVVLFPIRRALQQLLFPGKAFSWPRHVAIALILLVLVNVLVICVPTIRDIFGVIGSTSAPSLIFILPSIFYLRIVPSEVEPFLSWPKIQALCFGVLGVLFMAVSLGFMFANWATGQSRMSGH
Protocol: as §1, §2

b^0,+AT/rBAT = molecular target: T3, b^0,+AT/rBAT (Mus musculus, UniProt Q9QXA6)
T3 construct: expressed in transfected cells; host or cells: HRPE cells
T3 sequence (Q9QXA6 1-487): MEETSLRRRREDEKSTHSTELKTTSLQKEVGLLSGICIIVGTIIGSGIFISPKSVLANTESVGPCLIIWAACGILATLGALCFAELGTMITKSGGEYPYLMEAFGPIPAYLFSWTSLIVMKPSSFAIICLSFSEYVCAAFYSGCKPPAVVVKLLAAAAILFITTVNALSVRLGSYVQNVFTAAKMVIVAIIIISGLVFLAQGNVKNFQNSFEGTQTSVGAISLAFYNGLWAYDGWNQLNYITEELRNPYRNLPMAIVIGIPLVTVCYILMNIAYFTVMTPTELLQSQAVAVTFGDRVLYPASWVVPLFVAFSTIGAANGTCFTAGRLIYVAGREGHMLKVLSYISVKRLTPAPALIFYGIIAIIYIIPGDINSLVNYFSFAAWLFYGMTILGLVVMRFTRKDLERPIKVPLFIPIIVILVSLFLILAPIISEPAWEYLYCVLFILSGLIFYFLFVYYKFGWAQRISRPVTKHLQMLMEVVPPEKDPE
Protocol: as §1, §2

ATA1 = molecular target: T4, ATA1 (Homo sapiens, UniProt Q9H2H9)
T4 construct: expressed in transfected cells; host or cells: HRPE cells
T4 sequence (Q9H2H9 1-487): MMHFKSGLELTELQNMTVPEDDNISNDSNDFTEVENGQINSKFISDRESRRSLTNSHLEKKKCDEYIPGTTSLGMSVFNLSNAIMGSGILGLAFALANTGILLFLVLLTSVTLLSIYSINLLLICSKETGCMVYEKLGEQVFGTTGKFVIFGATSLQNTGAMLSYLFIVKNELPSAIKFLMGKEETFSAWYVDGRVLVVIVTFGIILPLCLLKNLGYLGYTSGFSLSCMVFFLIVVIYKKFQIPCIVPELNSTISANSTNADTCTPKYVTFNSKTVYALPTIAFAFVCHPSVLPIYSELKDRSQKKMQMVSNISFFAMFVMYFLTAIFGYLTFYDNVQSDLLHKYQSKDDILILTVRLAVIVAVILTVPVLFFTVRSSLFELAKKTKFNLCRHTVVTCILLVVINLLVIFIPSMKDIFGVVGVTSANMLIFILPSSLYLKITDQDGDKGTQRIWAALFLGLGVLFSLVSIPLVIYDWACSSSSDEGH
Protocol: as §1, §2

SN1 = molecular target: T5, SN1 (Homo sapiens, UniProt Q99624)
T5 construct: expressed in transfected cells; host or cells: HRPE cells
T5 sequence (Q99624 whole entry, species assumed): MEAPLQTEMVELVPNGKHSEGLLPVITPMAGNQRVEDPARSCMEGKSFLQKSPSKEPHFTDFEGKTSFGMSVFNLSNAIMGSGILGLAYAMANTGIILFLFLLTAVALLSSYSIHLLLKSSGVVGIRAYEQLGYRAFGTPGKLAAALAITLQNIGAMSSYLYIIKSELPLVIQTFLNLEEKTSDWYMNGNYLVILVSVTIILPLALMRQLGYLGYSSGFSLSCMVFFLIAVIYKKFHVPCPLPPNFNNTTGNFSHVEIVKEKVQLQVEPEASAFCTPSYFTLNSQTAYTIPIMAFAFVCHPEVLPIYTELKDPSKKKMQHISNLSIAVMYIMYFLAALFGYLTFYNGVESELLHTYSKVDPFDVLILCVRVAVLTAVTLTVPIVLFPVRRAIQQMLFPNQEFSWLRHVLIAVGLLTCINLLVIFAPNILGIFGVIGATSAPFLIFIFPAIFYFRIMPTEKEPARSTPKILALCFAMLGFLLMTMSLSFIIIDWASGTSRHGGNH
Protocol: as §1, §2

b^0,+ (b^0,+AT/4F2hc) = molecular target: T6, b^0,+ (b^0,+AT/4F2hc) (Mus musculus, UniProt Q9QXA6)
T6 construct: expressed in transfected cells; host or cells: HRPE cells
T6 sequence (Q9QXA6 1-487): T3 sequence (Q9QXA6 1-487)
Protocol: as §1, §2

system L1 (LAT1/4F2hc) = molecular target: T7, system L1 (LAT1/4F2hc) (Homo sapiens, UniProt Q01650)
T7 construct: expressed in transfected cells; host or cells: HRPE cells
T7 sequence (Q01650 whole entry, species assumed): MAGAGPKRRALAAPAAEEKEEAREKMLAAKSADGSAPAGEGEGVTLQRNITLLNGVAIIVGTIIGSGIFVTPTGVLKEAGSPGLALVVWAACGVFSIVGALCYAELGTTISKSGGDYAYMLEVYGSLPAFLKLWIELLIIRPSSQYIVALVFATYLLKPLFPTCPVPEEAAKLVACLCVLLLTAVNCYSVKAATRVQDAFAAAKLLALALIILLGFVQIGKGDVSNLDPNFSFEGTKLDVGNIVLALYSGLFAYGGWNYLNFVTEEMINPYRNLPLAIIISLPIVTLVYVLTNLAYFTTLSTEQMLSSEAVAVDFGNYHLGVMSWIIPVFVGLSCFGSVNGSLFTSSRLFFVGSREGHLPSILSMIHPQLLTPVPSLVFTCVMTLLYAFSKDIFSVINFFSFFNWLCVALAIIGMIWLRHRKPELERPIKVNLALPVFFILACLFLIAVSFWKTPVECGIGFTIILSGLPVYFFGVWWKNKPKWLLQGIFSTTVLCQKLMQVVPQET
T7 sequence (P08195 102-630 partner, species assumed): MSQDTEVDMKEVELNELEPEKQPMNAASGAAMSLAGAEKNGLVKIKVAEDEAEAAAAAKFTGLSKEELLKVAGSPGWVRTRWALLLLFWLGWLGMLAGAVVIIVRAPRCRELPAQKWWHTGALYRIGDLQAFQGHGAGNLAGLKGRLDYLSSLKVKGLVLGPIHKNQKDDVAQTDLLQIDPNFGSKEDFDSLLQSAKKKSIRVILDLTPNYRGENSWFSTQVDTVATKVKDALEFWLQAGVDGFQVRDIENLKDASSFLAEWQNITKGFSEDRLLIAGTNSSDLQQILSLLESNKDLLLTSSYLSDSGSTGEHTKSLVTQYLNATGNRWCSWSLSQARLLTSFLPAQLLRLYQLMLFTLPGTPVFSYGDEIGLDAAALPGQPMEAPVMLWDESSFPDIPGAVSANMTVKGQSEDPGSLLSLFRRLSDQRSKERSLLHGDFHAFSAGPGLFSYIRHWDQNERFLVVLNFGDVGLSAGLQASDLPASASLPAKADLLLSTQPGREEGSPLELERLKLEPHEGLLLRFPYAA
Protocol: as §1, §2

ATB^0 = molecular target: T8, ATB^0 (Homo sapiens, UniProt Q15758); set-up: expressed in transfected cells; host or cells: HRPE cells
T8 sequence (Q15758 1-541): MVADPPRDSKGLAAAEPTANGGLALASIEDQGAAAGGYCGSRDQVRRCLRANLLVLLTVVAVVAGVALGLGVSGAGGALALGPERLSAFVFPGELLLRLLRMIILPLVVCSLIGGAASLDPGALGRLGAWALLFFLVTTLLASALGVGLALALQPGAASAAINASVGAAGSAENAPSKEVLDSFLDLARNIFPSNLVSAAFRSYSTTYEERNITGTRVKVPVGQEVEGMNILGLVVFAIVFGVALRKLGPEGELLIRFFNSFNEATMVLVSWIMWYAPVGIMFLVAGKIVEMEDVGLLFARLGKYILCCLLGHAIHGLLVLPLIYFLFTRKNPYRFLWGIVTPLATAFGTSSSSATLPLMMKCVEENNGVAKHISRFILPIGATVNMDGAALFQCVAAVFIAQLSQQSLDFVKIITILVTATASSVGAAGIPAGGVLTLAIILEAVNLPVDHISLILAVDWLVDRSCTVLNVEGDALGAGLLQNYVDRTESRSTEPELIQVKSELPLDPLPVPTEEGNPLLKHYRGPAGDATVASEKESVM
Protocol: as §1, §2

N[C@H](CO)C(=O)O [D-Serine, D-serine]
D-serine transport (ATA2): showed D-serine transport activity | D-serine transport (SN2): did not transport D-serine | D-serine transport (b^0,+AT/rBAT): did not exhibit detectable D-serine transport activity | D-serine transport (ATA1): showed D-serine transport activity | D-serine transport (SN1): did not transport D-serine | D-serine transport (b^0,+ (b^0,+AT/4F2hc)): significant ability to transport | D-serine transport (system L1 (LAT1/4F2hc)): significant ability to transport | D-serine transport (ATB^0): able to transport D-serine to a marked extent
